Measured values taken from patent US8802597B2, “Herbicidal pyrimidines” (E I du Pont de Nemours and Company, priority 2003, dated 2014).
Where two headings read alike, the source gives them in different places.

Columns and labels:
Assay in all cases: Test A pre/postemergence
Assay type in all cases: in vivo
[1] = tested on: barnyardgrass (Echinochloa crus-galli); settings: for pest or weed control at 125 g/ha / pest or weed control at 500 g/ha: Echinochloa crus-galli, 240 h, read-out: Plant response rating, Barnyardgrass
How it was run: (§1)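 After planting in loam and sand, species received test chemical as preemergence soil spray; postemergence spray went on 2–10 cm plants at 1–2 leaves at the same time. Evaluation: visual injury, ~10 d, 0 no effect to 100 complete control.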

[2] = tested on: crabgrass (Digitaria sanguinalis); settings: for pest or weed control at 125 g/ha / pest or weed control at 500 g/ha: Digitaria sanguinalis, 240 h, read-out: Plant response rating, Crabgrass
How it was run: as §1

[3] = tested on: giant foxtail (Setaria faberi); settings: for pest or weed control at 125 g/ha / pest or weed control at 500 g/ha: Setaria faberi, 240 h, read-out: Plant response rating, Foxtail, Giant
How it was run: as §1

[4] = tested on: morningglory (Ipomoea spp.); settings: for pest or weed control at 125 g/ha / pest or weed control at 500 g/ha: Ipomoea, 240 h, read-out: Plant response rating, Morningglory
How it was run: as §1

[5] = tested on: redroot pigweed (Amaranthus retroflexus); settings: for pest or weed control at 125 g/ha / pest or weed control at 500 g/ha: Amaranthus retroflexus, 240 h, read-out: Plant response rating, Pigweed
How it was run: as §1

[6] = tested on: velvetleaf (Abutilon theophrasti); settings: for pest or weed control at 125 g/ha / pest or weed control at 500 g/ha: Abutilon theophrasti, 240 h, read-out: Plant response rating, Velvetleaf
How it was run: as §1

[7] = Postemergence, 125 g ai/ha, 0 to 100 scale (0 no effect, 100 complete control)
[8] = Postemergence, 500 g ai/ha, 0 to 100 scale (0 no effect, 100 complete control)
[9] = Preemergence, 125 g ai/ha, 0 to 100 scale where 0 is no effect and 100 is complete control, approximately ten days
[10] = Preemergence, 500 g ai/ha, 0 to 100 scale where 0 is no effect and 100 is complete control, approximately ten days
[11] = post-emergence, Postemergence, 125 g ai/ha, 0 to 100 scale (0 no effect, 100 complete control)
[12] = post-emergence, Postemergence, 500 g ai/ha, 0 to 100 scale (0 no effect, 100 complete control)
[13] = pre-emergence, Preemergence, 125 g ai/ha, 0 to 100 scale where 0 is no effect and 100 is complete control, approximately ten days
[14] = pre-emergence, Preemergence, 500 g ai/ha, 0 to 100 scale where 0 is no effect and 100 is complete control, approximately ten days

In the case of `Cc1ccc(-c2nc(N)c(Cl)c(C(=O)O)n2)cc1` [Compound 91], the “Plant response rating, Barnyardgrass” value [1, 7] is reported as 75, the “Plant response rating, Barnyardgrass” value [1, 8] is reported as 90 and the “Plant response rating, Barnyardgrass” value [1, 9] is reported as 5. The “Plant response rating, Barnyardgrass” value [1, 10] was 80, the “Plant response rating, Crabgrass” value [2, 7] was 5 and the “Plant response rating, Crabgrass” value [2, 8] was 15. For the same compound, the “Plant response rating, Crabgrass” value [2, 9] was 25, the “Plant response rating, Crabgrass” value [2, 10] was 75 and the “Plant response rating, Foxtail, Giant” value [3, 7] was 5. For the same compound, the “Plant response rating, Foxtail, Giant” value [3, 8] was 75, the “Plant response rating, Foxtail, Giant” value [3, 9] was 0 and the “Plant response rating, Foxtail, Giant” value [3, 10] was 25. The “Plant response rating, Morningglory” value [4, 7] was 5, the “Plant response rating, Morningglory” value [4, 8] was 30 and the “Plant response rating, Morningglory” value [4, 9] was 5. The “Plant response rating, Morningglory” value [4, 10] was 50, the “Plant response rating, Pigweed” value [5, 7] was 55 and the “Plant response rating, Pigweed” value [5, 8] was 100. The “Plant response rating, Pigweed” value [5, 9] was 100, the “Plant response rating, Pigweed” value [5, 10] was 100 and the “Plant response rating, Velvetleaf” value [6, 7] was 75. The “Plant response rating, Velvetleaf” value [6, 8] was 95, the “Plant response rating, Velvetleaf” value [6, 9] was 80 and the “Plant response rating, Velvetleaf” value [6, 10] was 100.

Compound `COC(=O)c1nc(C2CC2)nc(N)c1OC` [Compound 59] has a pest or weed control at 125 g/ha [1, 11] of 0%, a pest or weed control at 500 g/ha [1, 12] of 30% and a pest or weed control at 125 g/ha [1, 13] of 0%. For the same compound, the pest or weed control at 500 g/ha [1, 14] was 15%, the pest or weed control at 125 g/ha [2, 11] was 0% and the pest or weed control at 500 g/ha [2, 12] was 10%. It also gave a pest or weed control at 125 g/ha [2, 13] of 0%, a pest or weed control at 500 g/ha [2, 14] of 0% and a pest or weed control at 125 g/ha [3, 11] of 0%. For the same compound, the pest or weed control at 500 g/ha [3, 12] was 35%, the pest or weed control at 125 g/ha [3, 13] was 0% and the pest or weed control at 500 g/ha [3, 14] was 0%. It also gave a pest or weed control at 125 g/ha [4, 11] of 90%, a pest or weed control at 500 g/ha [4, 12] of 100% and a pest or weed control at 125 g/ha [4, 13] of 80%. For the same compound, the pest or weed control at 500 g/ha [4, 14] was 100%, the pest or weed control at 125 g/ha [5, 11] was 60% and the pest or weed control at 500 g/ha [5, 12] was 80%. For the same compound, the pest or weed control at 125 g/ha [5, 13] was 20%, the pest or weed control at 500 g/ha [5, 14] was 70% and the pest or weed control at 125 g/ha [6, 11] was 60%. For the same compound, the pest or weed control at 500 g/ha [6, 12] was 85%, the pest or weed control at 125 g/ha [6, 13] was 10% and the pest or weed control at 500 g/ha [6, 14] was 45%.

For `COC(=O)c1nc(-c2ccc(I)cc2)nc(N)c1Br` [Compound 128], the “Plant response rating, Barnyardgrass” value [1, 7] was 0, the “Plant response rating, Barnyardgrass” value [1, 8] was 0 and the “Plant response rating, Barnyardgrass” value [1, 9] was 0. For the same compound, the “Plant response rating, Barnyardgrass” value [1, 10] was 0, the “Plant response rating, Crabgrass” value [2, 7] was 0 and the “Plant response rating, Crabgrass” value [2, 8] was 0. The “Plant response rating, Crabgrass” value [2, 9] was 0, the “Plant response rating, Crabgrass” value [2, 10] was 0 and the “Plant response rating, Foxtail, Giant” value [3, 7] was 0. For the same compound, the “Plant response rating, Foxtail, Giant” value [3, 8] was 0, the “Plant response rating, Foxtail, Giant” value [3, 9] was 0 and the “Plant response rating, Foxtail, Giant” value [3, 10] was 0. For the same compound, the “Plant response rating, Morningglory” value [4, 7] was 55, the “Plant response rating, Morningglory” value [4, 8] was 80 and the “Plant response rating, Morningglory” value [4, 9] was 0. For the same compound, the “Plant response rating, Morningglory” value [4, 10] was 0, the “Plant response rating, Pigweed” value [5, 7] was 55 and the “Plant response rating, Pigweed” value [5, 8] was 75. For the same compound, the “Plant response rating, Pigweed” value [5, 9] was 0, the “Plant response rating, Pigweed” value [5, 10] was 0 and the “Plant response rating, Velvetleaf” value [6, 7] was 65. The “Plant response rating, Velvetleaf” value [6, 8] was 80, the “Plant response rating, Velvetleaf” value [6, 9] was 0 and the “Plant response rating, Velvetleaf” value [6, 10] was 0.

`CNc1nc(C2CC2)nc(C(=O)OC)c1Cl` [Compound 79] gave a pest or weed control at 125 g/ha [1, 11] of 85%, a pest or weed control at 500 g/ha [1, 12] of 90% and a pest or weed control at 125 g/ha [1, 13] of 30%. It also gave a pest or weed control at 500 g/ha [1, 14] of 80%, a pest or weed control at 125 g/ha [2, 11] of 40% and a pest or weed control at 500 g/ha [2, 12] of 75%. The pest or weed control at 125 g/ha [2, 13] was 30%, the pest or weed control at 500 g/ha [2, 14] was 80% and the pest or weed control at 125 g/ha [3, 11] was 80%. It also gave a pest or weed control at 500 g/ha [3, 12] of 90%, a pest or weed control at 125 g/ha [3, 13] of 40% and a pest or weed control at 500 g/ha [3, 14] of 95%. It also gave a pest or weed control at 125 g/ha [4, 11] of 90%, a pest or weed control at 500 g/ha [4, 12] of 95% and a pest or weed control at 125 g/ha [4, 13] of 55%. The pest or weed control at 500 g/ha [4, 14] was 100%, the pest or weed control at 125 g/ha [5, 11] was 90% and the pest or weed control at 500 g/ha [5, 12] was 100%. It also gave a pest or weed control at 125 g/ha [5, 13] of 90%, a pest or weed control at 500 g/ha [5, 14] of 100% and a pest or weed control at 125 g/ha [6, 11] of 90%. The pest or weed control at 500 g/ha [6, 12] was 95%, the pest or weed control at 125 g/ha [6, 13] was 60% and the pest or weed control at 500 g/ha [6, 14] was 90%.

With `COC(=O)c1nc(-c2ccc(Br)cc2)nc(N)c1Br` [Compound 129] the “Plant response rating, Barnyardgrass” value [1, 7] was 0, the “Plant response rating, Barnyardgrass” value [1, 8] was 0 and the “Plant response rating, Barnyardgrass” value [1, 9] was 0. For the same compound, the “Plant response rating, Barnyardgrass” value [1, 10] was 0, the “Plant response rating, Crabgrass” value [2, 7] was 0 and the “Plant response rating, Crabgrass” value [2, 8] was 0. For the same compound, the “Plant response rating, Crabgrass” value [2, 9] was 0, the “Plant response rating, Crabgrass” value [2, 10] was 0 and the “Plant response rating, Foxtail, Giant” value [3, 7] was 0. The “Plant response rating, Foxtail, Giant” value [3, 8] was 0, the “Plant response rating, Foxtail, Giant” value [3, 9] was 0 and the “Plant response rating, Foxtail, Giant” value [3, 10] was 0. For the same compound, the “Plant response rating, Morningglory” value [4, 7] was 60, the “Plant response rating, Morningglory” value [4, 8] was 70 and the “Plant response rating, Morningglory” value [4, 9] was 0. For the same compound, the “Plant response rating, Morningglory” value [4, 10] was 0, the “Plant response rating, Pigweed” value [5, 7] was 80 and the “Plant response rating, Pigweed” value [5, 8] was 85. For the same compound, the “Plant response rating, Pigweed” value [5, 9] was 0, the “Plant response rating, Pigweed” value [5, 10] was 15 and the “Plant response rating, Velvetleaf” value [6, 7] was 80. The “Plant response rating, Velvetleaf” value [6, 8] was 90, the “Plant response rating, Velvetleaf” value [6, 9] was 0 and the “Plant response rating, Velvetleaf” value [6, 10] was 5.

Work on `COC(=O)c1nc(-c2ccc(Cl)cc2)nc(N)c1Cl` [Compound 58, methyl 6-amino-5-chloro-2-(4-chlorophenyl)-4-pyrimidinecarboxylate] yielded a pest or weed control at 125 g/ha [1, 11] of 5%, a pest or weed control at 500 g/ha [1, 12] of 10% and a pest or weed control at 125 g/ha [1, 13] of 0%. It also gave a pest or weed control at 500 g/ha [1, 14] of 0%, a pest or weed control at 125 g/ha [2, 11] of 5% and a pest or weed control at 500 g/ha [2, 12] of 10%. For the same compound, the pest or weed control at 125 g/ha [2, 13] was 0%, the pest or weed control at 500 g/ha [2, 14] was 0% and the pest or weed control at 125 g/ha [3, 11] was 0%. It also gave a pest or weed control at 500 g/ha [3, 12] of 50%, a pest or weed control at 125 g/ha [3, 13] of 0% and a pest or weed control at 500 g/ha [3, 14] of 10%. The pest or weed control at 125 g/ha [4, 11] was 55%, the pest or weed control at 500 g/ha [4, 12] was 80% and the pest or weed control at 125 g/ha [4, 13] was 10%. The pest or weed control at 500 g/ha [4, 14] was 25%, the pest or weed control at 125 g/ha [5, 11] was 70% and the pest or weed control at 500 g/ha [5, 12] was 80%. The pest or weed control at 125 g/ha [5, 13] was 0%, the pest or weed control at 500 g/ha [5, 14] was 60% and the pest or weed control at 125 g/ha [6, 11] was 70%. The pest or weed control at 500 g/ha [6, 12] was 85%, the pest or weed control at 125 g/ha [6, 13] was 0% and the pest or weed control at 500 g/ha [6, 14] was 40%.
